For experiment [1], the system named is A375. Nature of the experiment: NCI cancer cell line panel screening (SRB), melanoma cell line A375. In kind it is cell-based. The conditions noted are these: Homo sapiens, A-375, read-out: IC50 against melanoma cell line in vitro. Here is the method:
(§1) According to the standard protocol (http://dtp.nci.nih.gov/dtpstandard/dwindex/index.isp) of the US National Cancer Institute (NCI) (www.dtp.nci.nih.gov), screening of a cancer cell line panel was performed. Briefly, human cell lines were allowed to grow in an RPMI 1640 medium containing 5% FBS and 2 mM L-glutamine. For a general screening experiment, cells were inoculated in 96-well microtiter plates in 100 μl at a plating density ranging from 5000 cells/well to 40,000 cells/well depending on the doubling time of individual cell lines. After cell inoculation, the microtiter plates were incubated at 37° C., 5% CO2, 95% air, and 100% relative humidity for 24 hours prior to addition of test compounds. 24 hours later, two plates of each cell line were fixed in situ with trichloroacetic acid (TCA) to measure the cell population for each cell line at the time of test compound addition (Tz). Test compounds were solubilized in dimethyl sulfoxide at 400-fold the intended final maximum test concentration, and stored frozen prior to use. At the time of compound addition, an aliquot of frozen concentrate was thawed and diluted to twice the intended final maximum test concentration with a complete medium containing 50 μg/ml of gentamicin. Additional four concentration of 10-fold or ½ log serial dilutions were made to provide a total of five compound concentrations plus control. Aliquots of 100 μl of these different compound dilutions were added to appropriate microtiter wells already containing 100 μl of medium, resulting in the required final compound concentrations.
(§2) Following compound addition, the plates were incubated for additional 48 hours at 37° C., 5% CO2, 95% air, and 100% relative humidity. For adherent cells, the assay was terminated by the addition of cold TCA. Cells were fixed in situ by the gentle addition of 50 μl of cold 50% (w/v) TCA (final concentration, 10% TAC) and incubated at 4° C. for 60 minutes. The supernatant was discarded, and the plates were washed five times with tap water and air-dried. A sulforhodamine B (SRB) solution (100 μl) at 0.4% (w/v) in 1% acetic acid was added to each well, and plates were incubated at room temperature for 10 minutes. After staining, unbound dye was removed by washing five times with 1% acetic acid and the plates were air-dried. Bound stain was subsequently solubilized with 10 mM Trizma base, and the absorbance was read on an automated plate reader at a wavelength of 515 nm. For suspension cells, the methodology was the same except that the assay was terminated by fixing settled cells at the bottom of the wells by gently adding 50 μl of 80% TCA (final concentration, 16% TCA). Using the seven absorbance measurements [time zero (Tz), control growth (C), and test growth rate in the presence of compound at the five concentration levels (Ti)], the growth percentage was calculated at each of the compound concentration levels. Growth inhibition percentage was calculated as follows: [(Ti−Tz)/(C−Tz)]×100 for concentrations for which Ti>/=Tz [(Ti−Tz)/Tz]×100 for concentrations for which Ti<Tz.

Experiment [2] concerns the target B-RAF (Homo sapiens (Human), UniProt P15056). Nature of the experiment: Protein kinase enzymatic activity (Reaction Biology kinase hotspot, 33P-ATP). Type of experiment: biochemical. To be noted: read-out: Inhibitory effect against kinase activity, B-RAF (IC50). As to the method:
(§3) Reaction biology kinase hotspot service (http://www.reactionbiology.com) was used to measure IC50. In a final reaction volume of 25 μL, kinase (5 mU to 10 mU) was incubated with 25 mM Tris (pH 7.5), 0.02 mM EGTA, 0.66 mg/ml of myelin basic protein, 10 mM magnesium acetate, and [^33P-ATP] (specific activity of about 500 CPM/pmol, concentration as required). The reaction was initiated by addition of Mg-ATP mix. After incubation for 40 min at room temperature, the reaction was stopped by addition of 5 μl of a 3% phosphoric acid solution. 10 μL of the reaction was then spotted onto a P30 filtermat and washed three times for 5 minutes in 75 mM phosphoric acid and once in methanol prior to drying and scintillation counting.

The target in experiment [3] is C-RAF (Homo sapiens (Human), UniProt P04049, Y340D/Y341D). Described as above. Type of experiment: biochemical. To be noted: read-out: Inhibitory effect against kinase activity, C-RAF (IC50). As to the method: as §3
In experiment [4] the target is V600E-B-RAF (Homo sapiens (Human), UniProt P15056, V600E). Described as above. In kind it is biochemical. To be noted: read-out: Inhibitory effect against kinase activity, V600E-B-RAF (IC50). Here is the method: as §3
Experiment [5] concerns LOX IMVI. The experiment in a line: NCI cancer cell line panel screening (SRB), melanoma cell line LOX IMVI. To be noted: read-out: IC50 against melanoma cell line in vitro. In kind it is cell-based, human. As to the method: as §1, with “Briefly, human cell lines were allowed to grow in an RPMI 1640 medium containing 5% FBS and 2 mM L-glutamine.” left out
as §2, with “Bound stain was subsequently solubilized with 10 mM Trizma base, and the absorbance was read on an automated plate reader at a wavelength of 515 nm.” left out

Experiment [6] relates to M14. The experiment in a line: NCI cancer cell line panel screening (SRB), melanoma cell line M14. In kind it is cell-based. To be noted: Homo sapiens, read-out: IC50 against melanoma cell line in vitro. As to the method:
as §1, §2

For experiment [7], the system named is MDA-MB-435. The experiment in a line: NCI cancer cell line panel screening (SRB), melanoma cell line MDA-MB-435. In kind it is cell-based. The conditions noted are these: Homo sapiens, read-out: IC50 against melanoma cell line in vitro. Here is the method: as §1, §2
The test system of experiment [8] is SK-MEL-2. Nature of the experiment: NCI cancer cell line panel screening (SRB), melanoma cell line SK-MEL-2. In kind it is cell-based, human. The conditions noted are these: read-out: IC50 against melanoma cell line in vitro. Here is the method:
as §1, with “Briefly, human cell lines were allowed to grow in an RPMI 1640 medium containing 5% FBS and 2 mM L-glutamine.” left out
as §2, with “Bound stain was subsequently solubilized with 10 mM Trizma base, and the absorbance was read on an automated plate reader at a wavelength of 515 nm.” left out

The test system of experiment [9] is SK-MEL-28. The experiment in a line: NCI cancer cell line panel screening (SRB), melanoma cell line SK-MEL-28. In kind it is cell-based, human. The conditions noted are these: Homo sapiens, read-out: IC50 against melanoma cell line in vitro. As to the method: as §1, with “Briefly, human cell lines were allowed to grow in an RPMI 1640 medium containing 5% FBS and 2 mM L-glutamine.” left out
as §2, with “Bound stain was subsequently solubilized with 10 mM Trizma base, and the absorbance was read on an automated plate reader at a wavelength of 515 nm.” left out

Experiment [10] deals with SK-MEL-5. Nature of the experiment: NCI cancer cell line panel screening (SRB), melanoma cell line SK-MEL-5. In kind it is cell-based, human. The conditions noted are these: read-out: IC50 against melanoma cell line in vitro. As to the method: as §1, with “Briefly, human cell lines were allowed to grow in an RPMI 1640 medium containing 5% FBS and 2 mM L-glutamine.” left out
as §2, with “Bound stain was subsequently solubilized with 10 mM Trizma base, and the absorbance was read on an automated plate reader at a wavelength of 515 nm.” left out

Experiment [11] has as its system UACC-62. Nature of the experiment: NCI cancer cell line panel screening (SRB), melanoma cell line UACC-62. Type of experiment: cell-based. To be noted: Homo sapiens, read-out: IC50 against melanoma cell line in vitro. As to the method:
as §1, §2

Where two headings read alike, the source gives them in different places.

Chain of B-RAF (P15056 whole entry): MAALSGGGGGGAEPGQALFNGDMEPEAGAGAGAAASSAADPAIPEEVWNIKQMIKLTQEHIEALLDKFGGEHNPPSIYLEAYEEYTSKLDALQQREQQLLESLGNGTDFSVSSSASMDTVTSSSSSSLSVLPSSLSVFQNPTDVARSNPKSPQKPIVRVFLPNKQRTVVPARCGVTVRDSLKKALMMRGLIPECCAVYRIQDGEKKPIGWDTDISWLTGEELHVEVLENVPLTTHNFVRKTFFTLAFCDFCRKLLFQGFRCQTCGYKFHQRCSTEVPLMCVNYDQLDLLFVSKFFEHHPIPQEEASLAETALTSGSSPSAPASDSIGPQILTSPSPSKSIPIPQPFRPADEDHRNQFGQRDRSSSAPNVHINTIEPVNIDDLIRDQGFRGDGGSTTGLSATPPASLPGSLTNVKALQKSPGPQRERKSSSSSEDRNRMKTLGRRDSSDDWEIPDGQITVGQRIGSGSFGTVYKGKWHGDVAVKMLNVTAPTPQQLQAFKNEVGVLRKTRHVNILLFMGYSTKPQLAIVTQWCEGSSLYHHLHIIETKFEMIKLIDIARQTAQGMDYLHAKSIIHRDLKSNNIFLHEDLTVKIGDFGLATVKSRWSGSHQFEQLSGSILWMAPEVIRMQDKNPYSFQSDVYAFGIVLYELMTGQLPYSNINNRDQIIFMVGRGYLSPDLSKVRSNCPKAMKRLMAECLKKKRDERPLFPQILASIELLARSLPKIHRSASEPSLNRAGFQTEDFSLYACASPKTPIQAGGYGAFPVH
Chain of V600E-B-RAF (P15056 whole entry V600E): as the sequence (P15056 whole entry) above, with V600E counted along it
Chain of C-RAF (P04049 306-648 Y340D/Y341D limits assumed): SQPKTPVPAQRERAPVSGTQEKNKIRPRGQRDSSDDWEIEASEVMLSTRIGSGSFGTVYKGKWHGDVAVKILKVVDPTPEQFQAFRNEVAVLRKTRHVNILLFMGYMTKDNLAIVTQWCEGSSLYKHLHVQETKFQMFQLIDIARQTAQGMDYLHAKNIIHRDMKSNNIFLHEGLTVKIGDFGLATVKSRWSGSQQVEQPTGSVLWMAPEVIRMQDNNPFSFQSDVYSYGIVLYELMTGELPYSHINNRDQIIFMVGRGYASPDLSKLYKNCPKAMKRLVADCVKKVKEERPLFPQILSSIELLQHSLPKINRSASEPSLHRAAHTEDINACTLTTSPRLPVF

By IC50 is commonly meant the point on the concentration scale where inhibition reaches its midpoint. Consider `CN1CCN(CCNc2nccc(-c3c(-c4cccc(O)c4)nc4occn34)n2)S1(=O)=O` [1II, 2-(2-((4-(6-(3-Hydroxylphenyl)imidazo[2,1-b]oxazol-5-yl)pyrimidin-2-yl)amino)ethyl)-5-methyl-1,2,5-thiadiazolidine 1,1-dioxide], for which the IC50 in experiment [1] was determined as 0.06 µM; in experiment [2], 0.00323 µM; in experiment [3], 0.00295 µM; in experiment [4] it was 0.00185 µM.
Consider `COc1ccc(S(=O)(=O)NCCNc2nccc(-c3c(-c4ccccc4)nc4sccn34)n2)cc1` [2III, 4-Methoxy-N-(2-((4-(6-phenylimidazo[2,1-b]thiazol-5-yl)pyrimidin-2-yl)amino)ethyl)benzenesulfonamide], for which the IC50 in experiment [5] (Homo sapiens) was found to be 3.94 µM; in experiment [6] it was 2.77 µM; in experiment [7], 1.22 µM; in [8] (Homo sapiens), 4.98 µM; in experiment [9], 5.79 µM; in [10] (Homo sapiens) it was 1.68 µM. The IC50 in [11] was determined as 1.17 µM; in experiment [2], 0.459 µM; in experiment [4] it was 0.077 µM.
As for `O=S(=O)(NCCNc1nccc(-c2c(-c3cccc(O)c3)nc3sccn23)n1)c1ccc(F)cc1` [25III, 4-Fluoro-N-(2-((4-(6-(3-hydroxylphenyl)imidazo[2,1-b]thiazol-5-yl)pyrimidin-2-yl)amino)ethyl)benzenesulfonamide], the IC50 in [1] was found to be 0.48 µM; in experiment [5] it was 4.11 µM; in experiment [6] it was 0.56 µM; in experiment [7], 0.93 µM; in experiment [8], 4.49 µM; in [9], 0.66 µM. In addition, the IC50 in [10] stood at 1.61 µM; in [11], 0.26 µM; in [2] it was 0.0057 µM; in [4], 0.001 µM.
As to `O=S(=O)(NCCCNc1nccc(-c2c(-c3cccc(O)c3)nc3sccn23)n1)c1ccc(F)cc1` [31III, 4-fluoro-N-(3-((4-(6-(3-hydroxylphenyl)imidazo[2,1-b]thiazol-5-yl)pyrimidin-2-yl)amino)propyl)benzenesulfonamide], the IC50 in experiment [1] was 0.3 µM; in [5] (Homo sapiens), 0.56 µM; in experiment [6] it was 0.06 µM; in experiment [7], 0.24 µM; in experiment [8] (Homo sapiens), 1.1 µM; in experiment [9], 0.05 µM. For the same molecule, the IC50 in experiment [10] (Homo sapiens) is 1.2 µM; in experiment [11] it was 0.02 µM; in experiment [2], 0.00419 µM; in [3], 0.00783 µM; in experiment [4], 0.00098 µM.

Values taken from US10570155B2, “Imidazooxazole derivative having antitumor effect, and pharmaceutical composition including same” (KOREA INSTITUTE OF SCIENCE AND TECHNOLOGY, priority 2016, dated 2020).
